Here are results for 16 molecules from patent US8193191B2, “Urotensin II receptor antagonists” (Janssen Pharmaceutica N.V., priority 2006, dated 2012).

Where two headings read alike, the source gives them in different places.

The target of assay [1] is T1, Human UII receptor, 6D9 human rhabdomyosarcoma cells (Homo sapiens, UniProt Q9UKP6).
T1 construct: 6D9: isolated by dilution subcloning of RMS13 cells, ATCC® Number: CRL-2061; host or cells: 6D9 human rhabdomyosarcoma cells (subclone of RMS13)
T1 sequence (Q9UKP6 1-389): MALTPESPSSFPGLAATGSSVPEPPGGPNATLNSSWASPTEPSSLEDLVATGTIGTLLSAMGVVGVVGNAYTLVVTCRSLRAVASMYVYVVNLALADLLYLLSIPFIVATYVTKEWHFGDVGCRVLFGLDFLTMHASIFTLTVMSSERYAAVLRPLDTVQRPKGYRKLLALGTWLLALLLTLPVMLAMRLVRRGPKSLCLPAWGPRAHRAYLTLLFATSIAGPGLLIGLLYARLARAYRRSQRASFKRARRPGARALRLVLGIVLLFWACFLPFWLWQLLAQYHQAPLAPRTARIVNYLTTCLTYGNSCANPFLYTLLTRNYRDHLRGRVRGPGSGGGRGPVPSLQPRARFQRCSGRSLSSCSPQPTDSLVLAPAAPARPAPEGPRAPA
The experiment in a line: Human UII Calcium Mobilization Assay. Format: cell-based. Particulars: average value, FLIPR TETRA, read-out: Human UII Ca^+ Mobilization Average IC50. The procedure, abridged:
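6D9 rhabdomyosarcoma cells loaded 45 min at 37° C with calcium dye (1.25 mM probenecid, 0.01% FBS, HBSS/20 mM HEPES). Antagonist and U-II agonist added at room temperature; FLIPR fluorescence read over 4 min; EC50/IC50 fitted. DMSO ≤0.1% final.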
On the technique in general: Calcium flux is commonly read through the fluorescence of an indicator in the cells.

The target in assay [2] is T2, rat GPR14 (U-II receptor) (Rattus norvegicus, UniProt P49684).
T2 construct: expressed in transfected cells
T2 sequence (P49684 1-386): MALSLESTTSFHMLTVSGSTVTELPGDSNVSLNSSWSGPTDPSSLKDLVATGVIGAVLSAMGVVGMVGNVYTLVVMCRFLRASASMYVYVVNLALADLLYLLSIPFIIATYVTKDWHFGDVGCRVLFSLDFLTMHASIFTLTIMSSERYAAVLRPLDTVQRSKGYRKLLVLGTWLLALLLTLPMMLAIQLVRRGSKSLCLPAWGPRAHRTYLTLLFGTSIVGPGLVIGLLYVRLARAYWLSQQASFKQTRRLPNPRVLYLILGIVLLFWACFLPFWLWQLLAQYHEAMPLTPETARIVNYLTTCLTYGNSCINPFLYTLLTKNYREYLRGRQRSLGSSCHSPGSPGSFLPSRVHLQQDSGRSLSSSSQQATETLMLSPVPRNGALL
Put plainly: Rat UII Calcium Mobilization FLIPR Assay. Format: cell-based. Particulars: average value for the compound tested; read-out: Rat UII FLIPR Average IC50. Put shortly: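 CHO cells stably expressing rat U-II receptor, seeded 24 h before assay, were loaded with FLIPR calcium dye in HBSS/20 mM HEPES/0.1% BSA/2.5 mM probenecid, pH 7.4, for 1 h at 37° C. Calcium mobilization then read by FLIPR at 23° C.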

For assay [3], the target named is T3, endogenous human UII receptor (Homo sapiens, UniProt Q9UKP6).
T3 sequence (Q9UKP6 1-389): T1 sequence (Q9UKP6 1-389)
The experiment in a line: Human Radioligand Binding Assay ((^125I)-U-II binding to human skeletal muscle myoblasts).

The mark [4] stands for this setting: read-out: Human UII Average Binding Ki, average value, (^125I)-U-II binding to human skeletal muscle myoblasts (HSMM), 25° C., 3 h.

Regarding `COc1ccc([C@@H](CCCNS(=O)(=O)c2sc(C)nc2C)N2C(=O)c3cccc(N4CCN([C@H](C)c5ccccc5)CC4)c3C2=O)cc1OC` [Cpd 124, (R)-2,4-dimethyl-thiazole-5-sulfonic acid (4-(3,4-dimethoxy-phenyl)-4-{1,3-dioxo-4-[4-(1R)-(1-phenyl-ethyl)-piperazin-1-yl]-1,3-dihydro-isoindol-2-yl}-butyl)-amide], the IC50 (usually the point on the concentration scale where inhibition reaches its midpoint) in assay [1] worked out at 0.3 µM; in assay [2] it was 0.028 µM. Besides, the affinity in assay [3] corresponds to a Ki of 0.32 µM.
Consider `COc1ccc([C@@H](CCCNS(=O)(=O)c2c(C)n[nH]c2C)N2C(=O)c3cccc(N4CCN([C@H](C)c5ccccc5)CC4)c3C2=O)cc1OC` [Cpd 125, (R)-3,5-dimethyl-1H-pyrazole-4-sulfonic acid (4-(3,4-dimethoxy-phenyl)-4-{1,3-dioxo-4-[4-(1R)-(1-phenyl-ethyl)-piperazin-1-yl]-1,3-dihydro-isoindol-2-yl}-butyl)-amide], for which the 50% inhibitory concentration (IC50) stood at 0.047 µM in assay [1] and 0.011 µM in assay [2]. In addition, in assay [3] (setting [4]), the Ki – broadly, the dissociation constant of the complex between target and ligand, obtained from inhibition or displacement – was determined as 0.013 µM.
For `COc1ccc([C@@H](CCCNS(=O)(=O)c2cn(C)nc2C)N2C(=O)c3cccc(N4CCN([C@H](C)c5ccccc5)CC4)c3C2=O)cc1OC` [Cpd 128, (R)-1,3-dimethyl-1H-pyrazole-4-sulfonic acid (4-(3,4-dimethoxy-phenyl)-4-{1,3-dioxo-4-[4-(1R)-(1-phenyl-ethyl)-piperazin-1-yl]-1,3-dihydro-isoindol-2-yl}-butyl)-amide], the values for the IC50 in assay [1] and in assay [2] were 0.28 µM and 0.0089 µM, respectively. The affinity in assay [3], expressed as Ki, was 0.11 µM.
The corresponding values for `COc1ccc([C@@H](CCCNS(=O)(=O)O)N2C(=O)c3cccc(N4CCN([C@H](C)c5ccccc5)CC4)c3C2=O)cc1OC` [Cpd 129, (R)-(4-(3,4-dimethoxy-phenyl)-4-{1,3-dioxo-4-[4-(1R)-(1-phenyl-ethyl)-piperazin-1-yl]-1,3-dihydro-isoindol-2-yl}-butyl)-sulfamic acid] are 0.16 µM, 0.0094 µM and 0.009 µM.
As to `COc1ccc([C@@H](CCCNS(=O)(=O)c2cnn(C)c2C)N2C(=O)c3cccc(N4CCN([C@H](C)c5ccccc5)CC4)c3C2=O)cc1OC` [Cpd 132, (R)-1,5-dimethyl-1H-pyrazole-4-sulfonic acid (4-(3,4-dimethoxy-phenyl)-4-{1,3-dioxo-4-[4-(1R)-(1-phenyl-ethyl)-piperazin-1-yl]-1,3-dihydro-isoindol-2-yl}-butyl)-amide], the IC50 in assay [1] worked out at 0.34 µM; in assay [2] it was 0.0098 µM. This molecule also gave a Ki in assay [3] of 0.072 µM.
As for `COc1ccc([C@@H](CCCNS(=O)(=O)c2cnn(C)c2)N2C(=O)c3cccc(N4CCN([C@H](C)c5ccccc5)CC4)c3C2=O)cc1OC` [Cpd 136, (R)-1-methyl-1H-pyrazole-4-sulfonic acid (4-(3,4-dimethoxy-phenyl)-4-{1,3-dioxo-4-[4-(1R)-(1-phenyl-ethyl)-piperazin-1-yl]-1,3-dihydro-isoindol-2-yl}-butyl)-amide], the concentration for half-maximal inhibition (IC50) in assay [1] came to 0.36 µM; in assay [2] it was 0.0062 µM. In addition, the Ki in assay [3] is 0.061 µM.
Take `COc1ccc([C@@H](CCCNS(=O)(=O)c2cnoc2C)N2C(=O)c3cccc(N4CCN([C@H](C)c5ccccc5)CC4)c3C2=O)cc1OC` [Cpd 138, (R)-5-methyl-isoxazole-4-sulfonic acid (4-(3,4-dimethoxy-phenyl)-4-{1,3-dioxo-4-[4-(1R)-(1-phenyl-ethyl)-piperazin-1-yl]-1,3-dihydro-isoindol-2-yl}-butyl)-amide]: the values for the IC50 in assay [1] and in assay [2] were 0.13 µM and 0.02 µM, respectively. In addition, in assay [3] (setting [4]), the Ki is 0.032 µM.
As for `COc1ccc([C@@H](CCCNS(=O)(=O)c2c(C)noc2C)N2C(=O)c3cccc(N4CCN([C@H](C)c5ccccc5)CC4)c3C2=O)cc1OC` [Cpd 139, (R)-3,5-dimethyl-isoxazole-4-sulfonic acid (4-(3,4-dimethoxy-phenyl)-4-{1,3-dioxo-4-[4-(1R)-(1-phenyl-ethyl)-piperazin-1-yl]-1,3-dihydro-isoindol-2-yl}-butyl)-amide], the IC50 worked out at 0.29 µM in assay [1] and 0.029 µM in assay [2]. Further, the Ki in assay [3] came to 0.046 µM.
With `COc1ccc([C@@H](CCCNS(=O)(=O)c2cn(C)c(C)n2)N2C(=O)c3cccc(N4CCN([C@H](C)c5ccccc5)CC4)c3C2=O)cc1OC` [Cpd 140, (R)-1,2-dimethyl-1H-imidazole-4-sulfonic acid (4-(3,4-dimethoxy-phenyl)-4-{1,3-dioxo-4-[4-(1R)-(1-phenyl-ethyl)-piperazin-1-yl]-1,3-dihydro-isoindol-2-yl}-butyl)-amide], the IC50 amounted to 0.22 µM in assay [1] and 0.014 µM in assay [2]. In assay [3] (setting [4]), the Ki was found to be 0.016 µM.
In the case of `COc1ccc([C@@H](CCCNC(=O)c2cnoc2C)N2C(=O)c3cccc(N4CCN([C@H](C)c5ccccc5)CC4)c3C2=O)cc1OC` [Cpd 144, (R)-5-methyl-isoxazole-4-carboxylic acid (4-(3,4-dimethoxy-phenyl)-4-{1,3-dioxo-4-[4-(1R)-(1-phenyl-ethyl)-piperazin-1-yl]-1,3-dihydro-isoindol-2-yl}-butyl)-amide], the IC50 in assay [1] was 0.76 µM; in assay [2] it was 0.011 µM. The Ki in assay [3] (setting [4]) was determined as 0.13 µM.
In the case of `COc1ccc([C@@H](CCCNc2ncccn2)N2C(=O)c3cccc(N4CCN([C@H](C)c5ccccc5)CC4)c3C2=O)cc1OC` [Cpd 145, (R)-2-[1-(3,4-dimethoxy-phenyl)-4-(pyrimidin-2-ylamino)-butyl]-4-[4-(1R)-(1-phenyl-ethyl)-piperazin-1-yl]-isoindole-1,3-dione], the IC50 was found to be 0.75 µM in assay [1] and 0.016 µM in assay [2]. In assay [3], this molecule had a Ki of 0.12 µM.
Consider `COc1ccc([C@@H](CCCNC(=N)N)N2C(=O)c3cccc(N4CCN([C@H](C)c5ccccc5)CC4)c3C2=O)cc1OC` [Cpd 146, (R)-N-(4-(3,4-dimethoxy-phenyl)-4-{1,3-dioxo-4-[4-(1R)-(1-phenyl-ethyl)-piperazin-1-yl]-1,3-dihydro-isoindol-2-yl}-butyl)-guanidine], for which the IC50 in assay [1] was determined as 2.7 µM; in assay [2] it was 0.029 µM. Moreover, the Ki in assay [3] worked out at 0.64 µM.
The like results for `COc1ccc([C@@H](CCCNC(=O)c2cccn2C)N2C(=O)c3cccc(N4CCN([C@H](C)c5ccccc5)CC4)c3C2=O)cc1OC` [Cpd 147, (R)-1-methyl-1H-pyrrole-2-carboxylic acid (4-(3,4-dimethoxy-phenyl)-4-{1,3-dioxo-4-[4-(1R)-(1-phenyl-ethyl)-piperazin-1-yl]-1,3-dihydro-isoindol-2-yl}-butyl)-amide] were, in that order, 2.1 µM, 0.032 µM and 0.16 µM.
Take `COc1ccc([C@@H](CCCNC(=O)c2ccc(S(N)(=O)=O)n2C)N2C(=O)c3cccc(N4CCN([C@H](C)c5ccccc5)CC4)c3C2=O)cc1OC` [Cpd 148, (R)-1-methyl-5-sulfamoyl-1H-pyrrole-2-carboxylic acid (4-(3,4-dimethoxy-phenyl)-4-{1,3-dioxo-4-[4-(1R)-(1-phenyl-ethyl)-piperazin-1-yl]-1,3-dihydro-isoindol-2-yl}-butyl)-amide]: the values for the IC50 in assay [1] and in assay [2] were 1.1 µM and 0.018 µM, respectively. The inhibition constant Ki in assay [3] is > 0.2 µM.
Consider `COc1ccc([C@@H](CCCNC(=O)[C@H]2CCCN2C(C)=O)N2C(=O)c3cccc(N4CCN([C@H](C)c5ccccc5)CC4)c3C2=O)cc1OC` [Cpd 149, (R)-1-acetyl-pyrrolidine-2-carboxylic acid (R)-(4-(3,4-dimethoxy-phenyl)-4-{1,3-dioxo-4-[4-(1R)-(1-phenyl-ethyl)-piperazin-1-yl]-1,3-dihydro-isoindol-2-yl}-butyl)-amide], for which the IC50 in assay [1] was found to be 0.76 µM; in assay [2], 0.015 µM. Besides, the affinity in assay [3], expressed as Ki, was 0.071 µM.
The like results for `COc1ccc([C@@H](CCCNC(=O)c2ccccn2)N2C(=O)c3cccc(N4CCN([C@H](C)c5ccccc5)CC4)c3C2=O)cc1OC` [Cpd 150, (R)-pyridine-2-carboxylic acid (4-(3,4-dimethoxy-phenyl)-4-{1,3-dioxo-4-[4-(1R)-(1-phenyl-ethyl)-piperazin-1-yl]-1,3-dihydro-isoindol-2-yl}-butyl)-amide] were, in that order, 0.86 µM, 0.038 µM and 0.074 µM.
